Like-named read-outs stand apart in the source and are kept apart here. Some results are limits rather than exact numbers.

The source of these data is publication PMC12693416, “From Lipid Regulation to Neuroprotection: Multitarget (Benzo)thiazine Derivatives as Promising Leads” (Molecules, 2025).

One assay deals with AChE. The following applies: read-out: IC50 against AChE; cited from earlier work.
Assay [1] has as its target soybean lipoxygenase (LOX-3). The experiment in a line: Soybean lipoxygenase (LOX-3) inhibition. It is filed as biochemical. The following applies: after 5 min of incubation; sodium linoleate 100 μM, pH 9.0. The procedure:
Lipoxygenase (LOX) inhibitory activity was determined using soybean lipoxygenase (250 U/mL) and sodium linoleate (100 μM) as substrate, in Tris–HCl buffer pH 9.0.

In assay [2] the test system is carrageenan-induced mouse paw edema. Put plainly: Carrageenan-induced mouse paw edema. In kind it is in vivo, C57BL/6 mice. The following applies: ip, 3.5 h, i.p. 0.30 mmol/kg, female C57BL/6, 3.5 h after carrageenan, read-out: % Edema (decrease of carrageenan-induced paw edema vs control). On the procedure: For the in vivo anti-inflammatory activity, C57BL/6 mice were injected with 0.025 mL carrageenan (2% w/v solution in saline) i.d. into the right hind paw, the left paw serving as control. The test compounds dissolved in saline (300 μmol/kg) were given i.p. right after the carrageenan injection, and 3.5 h later the produced edema was estimated as paw weight increase. Results are expressed as percentage of reduction in paw-edema and are the mean of 6 animals (per compound).
For orientation: Carrageenan injected into the paw causes an acute inflammation.

Assay [3] is described as follows: Radical scavenging of DPPH. As to conditions: DPPH 200 μM, 30 min incubation. On the procedure: Compounds, dissolved in absolute methanol, at concentrations of 25–400 μM, were added to an equal volume of a methanolic solution of DPPH (final concentration 200 μM) at room temperature (22 ± 2 °C).
(In general: The DPPH test is a chemical assay of radical scavenging.)

The nature of assay [4]: Iron chelation (ferrozine assay). The following applies: 100 μM compound, Fe2+ 20 μM. On the procedure:
[…] The reaction was initiated with the addition of a 100 μM aqueous ferrozine solution, which chelates iron ions, resulting in an increased maximum absorbance at 562 nm. After incubation at 37 °C for 10 min, the mixture’s absorbance is measured at 562/700 nm. Each value is expressed as the mean of 3 tests per sample [46].

Assay [5] concerns plasma of hyperlipidaemic mice. The experiment in a line: Total antioxidant capacity (TAC) of plasma in hyperlipidaemic mice. It is filed as in vivo. As to conditions: Mus musculus, ip, 24 h, i.p. 84 μmol/kg, read-out: Total Antioxidant Capacity (TAC) Increase (%).
In assay [6] the target is T1, acetylcholinesterase from eel (Electrophorus electricus, UniProt O42275).
T1 construct: purchased Sigma
T1 sequence (O42275 24-633): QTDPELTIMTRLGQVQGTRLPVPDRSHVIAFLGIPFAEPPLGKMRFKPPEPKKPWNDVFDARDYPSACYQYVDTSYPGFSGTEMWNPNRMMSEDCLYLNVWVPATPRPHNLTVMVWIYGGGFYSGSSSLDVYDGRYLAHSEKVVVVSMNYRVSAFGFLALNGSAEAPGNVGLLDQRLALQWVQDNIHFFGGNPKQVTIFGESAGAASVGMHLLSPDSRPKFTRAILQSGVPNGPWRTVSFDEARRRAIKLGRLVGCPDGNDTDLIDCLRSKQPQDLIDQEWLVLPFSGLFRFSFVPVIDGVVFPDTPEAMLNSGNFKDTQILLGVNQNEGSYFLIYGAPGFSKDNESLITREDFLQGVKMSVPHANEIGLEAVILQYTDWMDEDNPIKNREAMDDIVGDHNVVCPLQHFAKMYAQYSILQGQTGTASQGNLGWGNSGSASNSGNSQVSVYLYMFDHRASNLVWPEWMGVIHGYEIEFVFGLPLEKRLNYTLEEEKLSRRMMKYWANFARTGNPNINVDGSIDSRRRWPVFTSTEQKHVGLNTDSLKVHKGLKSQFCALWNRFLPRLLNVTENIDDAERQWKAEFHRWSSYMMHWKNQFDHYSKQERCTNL
Put plainly: Acetylcholinesterase (AChE) inhibition (Ellman). In kind it is biochemical. The following applies: for inhibition at 300 µM: read-out: AChE Inhibition (%), 300 μM compound. On the procedure:
(0.31 mM) in phosphate buffer with pH = 7. The incubation mixture is monitored for 7 min at 37 °C.
(In general: Ellman's reagent forms a yellow product with free thiols.)

The test system of another assay is hyperlipidaemic mice. The experiment in a line: Tyloxapol (Triton WR 1339)-induced hyperlipidemia, plasma lipid parameters. As to conditions: i.p. 84 μmol/kg; for change in vivo at 84 µmol/kg / inhibition in vivo at 84 µmol/kg: Mus musculus, ip, 24 h. In kind it is in vivo. On the procedure:
An aqueous solution of Triton WR 1339 was given i.p. to mice (400 mg/kg of body weight) and one hour later the test compounds (84 μmol/kg of body weight), dissolved in saline or saline only, were administered i.p. After 24 h, blood was taken from the aorta/heart and used for the determination of plasma total cholesterol (TC), triglyceride (TG) levels, and high-density lipoprotein (HDL) levels, using commercially available kits (Biosis Cholesterol Enzymatic/PAP, Biosis Triglycerides GPO/PAP, and Biosis HDL Phosphovolframic, Biosis, Athens Greece). Levels of plasma lipids were determined in duplicate while values presented are the mean from 8 animals (per compound). The levels of low-density lipoprotein (LDL) are calculated according to the equation: LDL (mg/dL) = 3/4 * (TC-HDL).

Assay [7] relates to mouse liver microsomal lipid peroxidation. The experiment in a line: Inhibition of mouse liver microsomal lipid peroxidation (LP). As to conditions: read-out: LP IC50 Value; 45 min incubation.
The mark [8] stands for this setting: ratio calculated, read-out: % HDL/LDL Increase (antiatherogenic index).
The mark [9] stands for this setting: LDL calculated as 3/4*(TC-HDL), read-out: % LDL Decrease.
[10] abbreviates: plasma, vs tyloxapol control, read-out: % Total Cholesterol (TC) Reduction.
The mark [11] stands for this setting: plasma, vs tyloxapol control, read-out: % HDL Increase.
Where [12] appears, read: plasma, vs tyloxapol control, read-out: % Triglycerides (TG) Reduction.

One may read the IC50 as the concentration needed to halve the response being measured. As to `O=C(/C=C/c1ccc(O)c(O)c1)O[C@@H]1C[C@](O)(C(=O)O)C[C@@H](O)[C@H]1O` [chlorogenic acid], in the assay with AChE, the IC50 was ~277 µM.

Broadly, the inhibition is the change of the read-out against control, counted positive when it falls. As to `O=C(c1cccnc1)N1CCSC(c2ccc(-c3ccccc3)cc2)C1` (centres unmarked) [Compound 9], the IC50 in [1] was 192 µM; in [3] it was > 400 µM; in assay [7], > 1000 µM. Further, the inhibition in vivo at 300 µmol/kg in [2] stood at 34%. Moreover, in assay [4], the “% of Fe(II) Chelation (at 100 μM)” value was determined as 2%. Further, the figures for the change in vivo at 84 µmol/kg (in [5]; in the assay on hyperlipidaemic mice (setting [8])) were 60% and 105%, respectively. For the same molecule, the inhibition at 300 µM in [6] stood at 33%. Moreover, the inhibition in vivo at 84 µmol/kg was 44% in the assay on hyperlipidaemic mice (setting [9]) and 35% in the assay with hyperlipidaemic mice (setting [10]). Besides, the “% Triglycerides (TG), value marked footnote 1: increase percentage” value with hyperlipidaemic mice (plasma, TG increase, not reduction) is listed as 33 *^,1%.

With `O=C(/C=C/c1ccccc1)N1CCSC(c2ccc(-c3ccccc3)cc2)C1` (centres unmarked) [Compound 8, (E)-1-(2-([1,1′-Biphenyl]-4-yl)thiomorpholino)-3-phenylprop-2-en-1-one], the IC50 in assay [1] is > 200 µM; in [3], > 400 µM; in assay [7], > 1000 µM. The inhibition in vivo at 300 µmol/kg in assay [2] came to 46%. In addition, in [4], the “% of Fe(II) Chelation (at 100 μM)” value is given as 5%. Besides, the values for the change in vivo at 84 µmol/kg (in [5]; in the assay with hyperlipidaemic mice (setting [11]); with hyperlipidaemic mice (setting [8])) were 104%, 9% and 91%, respectively. Moreover, the inhibition at 300 µM in [6] is 19%. For the same molecule, the inhibition in vivo at 84 µmol/kg in the assay on hyperlipidaemic mice (setting [9]) was 57%; with hyperlipidaemic mice (setting [10]), 45%; with hyperlipidaemic mice (setting [12]), 53%.

As to `CC(C)(C)c1cc(C(=O)N2CCSC(c3ccc(-c4ccccc4)cc3)C2)cc(C(C)(C)C)c1O` (centres unmarked) [Compound 5, (2-([1,1′-Biphenyl]-4-yl)thiomorpholino)(3,5-ditertbutyl-4-hydroxyphenyl)methanone], the IC50 came to 150 µM in [1], 300 µM in assay [3] and 250 µM in [7]. Besides, the inhibition in vivo at 300 µmol/kg in assay [2] stood at 35%. Moreover, the “% of Fe(II) Chelation (at 100 μM)” value in [4] came out at 0%. Moreover, the change in vivo at 84 µmol/kg in assay [5] is 0%. The inhibition at 300 µM in assay [6] came to 24%. Moreover, the inhibition in vivo at 84 µmol/kg worked out at 55% with hyperlipidaemic mice (setting [10]) and 50% in the assay on hyperlipidaemic mice (setting [12]).

As for `COc1cc(C(=O)O)cc(OC)c1O` [syringic acid], the IC50 in the assay with AChE was ~149 µM.

On to `COc1ccc(/C=C/C(=O)N2CCSC(c3ccc(-c4ccccc4)cc3)C2)cc1OC` (centres unmarked) [Compound 2, (E)-1-(2-([1,1′-Biphenyl]-4-yl)thiomorpholino)-3-(3,4-dimethoxyphenyl)prop-2-en-1-one], for which the IC50 in assay [1] was > 300 µM; in assay [3], > 400 µM; in assay [7] it was > 1000 µM. Further, in assay [2], the inhibition in vivo at 300 µmol/kg was ≤ 60%. Further, the “% of Fe(II) Chelation (at 100 μM)” value in [4] is listed as 18%. The change in vivo at 84 µmol/kg was 43% in assay [5], 44% in the assay with hyperlipidaemic mice (setting [11]) and 122% in the assay with hyperlipidaemic mice (setting [8]). For the same molecule, in [6], the inhibition at 300 µM came out at 26%. Also, the inhibition in vivo at 84 µmol/kg was 53% in the assay on hyperlipidaemic mice (setting [9]), 30% in the assay with hyperlipidaemic mice (setting [10]) and 60% in the assay on hyperlipidaemic mice (setting [12]).

In the case of `COc1cc(C(=O)N2CC(c3ccc(-c4ccccc4)cc3)Sc3ccccc32)cc(OC)c1OC` (centres unmarked) [Compound 14, (2-([1,1′-Biphenyl]-4-yl)-2,3-dihydro-4H-benzo[b][1,4]thiazin-4-yl)(3,4,5-trimethoxyphenyl)methanone], the IC50 was 71 µM in [1], > 400 µM in assay [3] and > 1000 µM in assay [7]. In [2], the inhibition in vivo at 300 µmol/kg was found to be 38%. Besides, the “% of Fe(II) Chelation (at 100 μM)” value in assay [4] was determined as 6%. For the same molecule, the change in vivo at 84 µmol/kg worked out at 144% in [5] and 13% in the assay with hyperlipidaemic mice (setting [11]). The inhibition at 300 µM in assay [6] is ~45%. Also, the inhibition in vivo at 84 µmol/kg in the assay with hyperlipidaemic mice (setting [9]) was 73%; with hyperlipidaemic mice (setting [10]), 51%; in the assay with hyperlipidaemic mice (setting [12]) it was 50%.

As to `COc1ccc(/C=C/C(=O)N2CC(c3ccc(-c4ccccc4)cc3)Sc3ccccc32)cc1OC` (centres unmarked) [Compound 12, (E)-1-(2-([1,1′-Biphenyl]-4-yl)-2,3-dihydro-4H-benzo[b][1,4]thiazin-4-yl)-3-(3,4-dimethoxyphenyl)prop-2-en-1-one], the IC50 was 74 µM in [1], > 400 µM in [3] and > 1000 µM in assay [7]. In addition, the inhibition in vivo at 300 µmol/kg in [2] is 43%. Besides, the “% of Fe(II) Chelation (at 100 μM)” value in assay [4] came out at 17%. The change in vivo at 84 µmol/kg was 203% in [5] and 63% in the assay with hyperlipidaemic mice (setting [11]). Moreover, in assay [6], the inhibition at 300 µM worked out at 17%. The inhibition in vivo at 84 µmol/kg with hyperlipidaemic mice (setting [9]) is 59%; in the assay on hyperlipidaemic mice (setting [10]), 27%; in the assay on hyperlipidaemic mice (setting [12]), 29%.

As to `COc1cc(C(=O)N2CCSC(c3ccc(-c4ccccc4)cc3)C2)cc(OC)c1OC` (centres unmarked) [Compound 4], the IC50 in assay [1] was 71 µM; in assay [3], > 400 µM; in [7], > 500 µM. Further, the inhibition in vivo at 300 µmol/kg in [2] worked out at 44%. For the same molecule, the “% of Fe(II) Chelation (at 100 μM)” value in assay [4] came to 4%. Also, the change in vivo at 84 µmol/kg in [5] was 87%; in the assay on hyperlipidaemic mice (setting [11]), 95%. The inhibition at 300 µM in assay [6] worked out at 30%. Moreover, the inhibition in vivo at 84 µmol/kg in the assay on hyperlipidaemic mice (setting [9]) was 5%; with hyperlipidaemic mice (setting [10]) it was 10%; in the assay with hyperlipidaemic mice (setting [12]), 35%.

In the case of `c1ccc(-c2ccc(C3CNc4ccccc4S3)cc2)cc1` (centres unmarked) [Compound 11, 2-([1,1′-Biphenyl]-4-yl)-3,4-dihydro-2H-benzo[b][1,4]thiazine], the half-maximal inhibitory concentration (IC50) in [1] is 134 µM; in [3], > 400 µM; in assay [7], 30 µM. Further, the inhibition in vivo at 300 µmol/kg in assay [2] is 40%. For the same molecule, the “% of Fe(II) Chelation (at 100 μM)” value in assay [4] was found to be 10%. Besides, the figures for the change in vivo at 84 µmol/kg (in assay [5]; with hyperlipidaemic mice (setting [11])) were > 200% and 101%, respectively. The “AChE Inhibition (%)” value in assay [6] (300 μM compound) is “inactivity”. For the same molecule, the inhibition in vivo at 84 µmol/kg was 48% in the assay with hyperlipidaemic mice (setting [9]), 23% in the assay with hyperlipidaemic mice (setting [10]) and 59% in the assay on hyperlipidaemic mice (setting [12]).

As to `CC(C)(C)c1cc(C(=O)N2CC(c3ccc(-c4ccccc4)cc3)Sc3ccccc32)cc(C(C)(C)C)c1O` (centres unmarked) [Compound 15, (2-([1,1′-Biphenyl]-4-yl)-2,3-dihydro-4H-benzo[b][1,4]thiazin-4-yl)(3,5-ditertbutyl-4-hydroxyphenyl)methanone], the IC50 is 83 µM in assay [1], > 400 µM in assay [3] and > 500 µM in assay [7]. Also, the inhibition in vivo at 300 µmol/kg in assay [2] was found to be 31%. Moreover, the “% of Fe(II) Chelation (at 100 μM)” value in [4] worked out at 8%. Moreover, the change in vivo at 84 µmol/kg worked out at 131% in assay [5] and 79% in the assay with hyperlipidaemic mice (setting [11]). Besides, the inhibition at 300 µM in [6] came out at 23%. Further, the figures for the inhibition in vivo at 84 µmol/kg with hyperlipidaemic mice (setting [9]), with hyperlipidaemic mice (setting [10]) and with hyperlipidaemic mice (setting [12]) were 74%, 55% and 35%, respectively.
